Among the data in ChEMBL document CHEMBL4680201, “Design, synthesis, and pharmacological evaluation of 4- or 6-phenyl-pyrimidine derivatives as novel and selective Janus kinase 3 inhibitors” (Eur J Med Chem, 2020) are IC50 values, retold here.

As usually defined, the IC50 is the concentration at which inhibition is half-maximal.

The target of experiment [1] is Tyrosine-protein kinase JAK1 (Homo sapiens, UniProt P23458). Description: Inhibition of recombinant human GST-tagged JAK1 cytoplasmic domain (866 to 1154 residues) expressed in baculovirus expression system using TK-substrate-biotin preincubated for 5 mins followed by substrate addition and measured after 30 mins by HTRF assay.
Sequence of Tyrosine-protein kinase JAK1 (P23458 whole entry, the tested form may be a part): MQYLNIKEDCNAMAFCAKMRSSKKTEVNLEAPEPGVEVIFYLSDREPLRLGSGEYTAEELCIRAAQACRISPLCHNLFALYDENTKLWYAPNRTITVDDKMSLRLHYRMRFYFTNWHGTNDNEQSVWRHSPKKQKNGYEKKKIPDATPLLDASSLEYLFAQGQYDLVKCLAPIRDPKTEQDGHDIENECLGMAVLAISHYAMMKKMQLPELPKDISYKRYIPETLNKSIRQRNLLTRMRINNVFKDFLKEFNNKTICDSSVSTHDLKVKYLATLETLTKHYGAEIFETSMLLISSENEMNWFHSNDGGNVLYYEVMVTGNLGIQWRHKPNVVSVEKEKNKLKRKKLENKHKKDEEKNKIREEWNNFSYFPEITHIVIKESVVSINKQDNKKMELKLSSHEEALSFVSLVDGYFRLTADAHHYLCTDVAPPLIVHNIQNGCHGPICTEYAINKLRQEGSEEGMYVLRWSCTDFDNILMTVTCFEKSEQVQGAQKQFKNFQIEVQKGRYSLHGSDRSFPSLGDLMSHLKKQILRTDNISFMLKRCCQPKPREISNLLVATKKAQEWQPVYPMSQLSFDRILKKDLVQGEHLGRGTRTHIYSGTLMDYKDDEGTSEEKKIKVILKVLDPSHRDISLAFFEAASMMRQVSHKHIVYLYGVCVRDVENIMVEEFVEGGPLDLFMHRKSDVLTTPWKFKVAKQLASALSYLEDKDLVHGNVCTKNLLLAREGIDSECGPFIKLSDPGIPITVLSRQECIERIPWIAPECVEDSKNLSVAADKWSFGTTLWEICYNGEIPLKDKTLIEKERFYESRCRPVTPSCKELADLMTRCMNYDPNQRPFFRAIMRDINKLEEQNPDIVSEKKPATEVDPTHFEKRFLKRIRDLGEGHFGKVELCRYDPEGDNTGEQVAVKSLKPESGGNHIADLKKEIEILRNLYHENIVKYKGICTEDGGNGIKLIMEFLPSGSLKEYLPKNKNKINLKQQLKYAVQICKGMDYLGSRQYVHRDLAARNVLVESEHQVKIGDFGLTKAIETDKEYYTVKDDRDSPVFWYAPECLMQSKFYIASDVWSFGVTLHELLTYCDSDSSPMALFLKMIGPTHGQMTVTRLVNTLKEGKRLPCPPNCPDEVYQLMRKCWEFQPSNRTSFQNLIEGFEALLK
The target of experiment [2] is Tyrosine-protein kinase JAK2 (Homo sapiens, UniProt O60674). The class given is ADME.
Sequence of Tyrosine-protein kinase JAK2 (O60674 whole entry): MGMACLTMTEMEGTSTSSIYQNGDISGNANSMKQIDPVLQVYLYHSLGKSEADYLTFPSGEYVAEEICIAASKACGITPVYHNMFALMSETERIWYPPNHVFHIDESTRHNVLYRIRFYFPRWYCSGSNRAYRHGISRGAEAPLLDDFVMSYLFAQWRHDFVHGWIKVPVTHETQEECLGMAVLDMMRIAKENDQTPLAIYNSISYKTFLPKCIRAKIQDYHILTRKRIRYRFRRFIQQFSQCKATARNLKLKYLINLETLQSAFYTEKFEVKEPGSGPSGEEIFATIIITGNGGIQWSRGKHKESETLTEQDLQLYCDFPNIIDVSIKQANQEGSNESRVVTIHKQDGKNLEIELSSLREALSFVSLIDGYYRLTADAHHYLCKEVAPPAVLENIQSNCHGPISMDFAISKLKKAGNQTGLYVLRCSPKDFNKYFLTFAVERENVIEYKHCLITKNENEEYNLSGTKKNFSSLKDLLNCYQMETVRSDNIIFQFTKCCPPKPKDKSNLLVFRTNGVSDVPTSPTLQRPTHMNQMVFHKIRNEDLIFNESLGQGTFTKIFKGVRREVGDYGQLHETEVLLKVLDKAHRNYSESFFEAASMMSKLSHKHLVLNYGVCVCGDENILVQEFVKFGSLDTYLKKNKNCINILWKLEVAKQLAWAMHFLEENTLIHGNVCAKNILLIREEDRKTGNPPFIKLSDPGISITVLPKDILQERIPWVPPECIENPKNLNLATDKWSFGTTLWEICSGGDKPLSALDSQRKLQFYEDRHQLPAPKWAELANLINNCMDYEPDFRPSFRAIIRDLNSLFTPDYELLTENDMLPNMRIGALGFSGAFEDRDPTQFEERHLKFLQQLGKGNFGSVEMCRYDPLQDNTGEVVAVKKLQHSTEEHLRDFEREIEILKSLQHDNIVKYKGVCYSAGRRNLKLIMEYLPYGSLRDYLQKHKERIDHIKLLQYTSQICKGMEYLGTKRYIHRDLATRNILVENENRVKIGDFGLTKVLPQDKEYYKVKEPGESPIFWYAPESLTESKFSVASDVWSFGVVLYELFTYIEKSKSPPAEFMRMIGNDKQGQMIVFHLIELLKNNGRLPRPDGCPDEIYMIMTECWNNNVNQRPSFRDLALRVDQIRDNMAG
The target of experiment [3] is T1, Tyrosine-protein kinase JAK3 (Homo sapiens, UniProt P52333).
T1 sequence (P52333 whole entry): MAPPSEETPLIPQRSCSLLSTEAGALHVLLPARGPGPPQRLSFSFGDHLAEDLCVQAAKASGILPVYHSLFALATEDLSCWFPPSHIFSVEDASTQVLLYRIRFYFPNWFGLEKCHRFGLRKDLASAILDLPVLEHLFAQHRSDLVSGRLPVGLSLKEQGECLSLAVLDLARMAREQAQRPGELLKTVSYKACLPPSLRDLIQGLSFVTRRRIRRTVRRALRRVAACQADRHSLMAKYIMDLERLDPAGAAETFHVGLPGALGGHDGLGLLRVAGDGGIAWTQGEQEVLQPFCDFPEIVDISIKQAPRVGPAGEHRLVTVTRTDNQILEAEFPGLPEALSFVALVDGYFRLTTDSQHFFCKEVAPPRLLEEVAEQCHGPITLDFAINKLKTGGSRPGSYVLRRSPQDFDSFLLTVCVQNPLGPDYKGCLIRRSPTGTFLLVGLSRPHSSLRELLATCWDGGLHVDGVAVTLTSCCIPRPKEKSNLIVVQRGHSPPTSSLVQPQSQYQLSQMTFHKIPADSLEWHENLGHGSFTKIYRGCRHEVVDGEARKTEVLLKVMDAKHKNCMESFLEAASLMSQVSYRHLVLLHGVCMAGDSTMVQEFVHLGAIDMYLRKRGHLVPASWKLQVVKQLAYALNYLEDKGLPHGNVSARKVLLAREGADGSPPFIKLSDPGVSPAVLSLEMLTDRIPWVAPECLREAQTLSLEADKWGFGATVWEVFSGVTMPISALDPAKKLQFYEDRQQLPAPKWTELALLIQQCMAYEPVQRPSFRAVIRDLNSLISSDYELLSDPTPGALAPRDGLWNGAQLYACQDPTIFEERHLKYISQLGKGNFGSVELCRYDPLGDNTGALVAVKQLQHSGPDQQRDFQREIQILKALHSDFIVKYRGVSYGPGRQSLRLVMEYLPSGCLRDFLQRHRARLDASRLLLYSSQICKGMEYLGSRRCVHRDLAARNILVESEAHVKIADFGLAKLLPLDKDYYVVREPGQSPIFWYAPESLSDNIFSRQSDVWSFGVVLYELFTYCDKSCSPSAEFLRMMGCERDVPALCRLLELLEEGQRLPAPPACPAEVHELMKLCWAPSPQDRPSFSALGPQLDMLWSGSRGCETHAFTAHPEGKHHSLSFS

Take `C/C=C/C(=O)Nc1ccc(-c2cc(Nc3ccc(N4CCOCC4)cc3)ncn2)cc1`: the IC50 in experiment [1] came to 0.321 µM; in experiment [2] it was 2.15 µM; in experiment [3], 0.099 µM.

Turning to `C=CC(=O)Nc1cccc(-c2cc(Nc3cnn(CCOC)c3)ncn2)c1`, the 50% inhibitory concentration (IC50) in experiment [1] is 0.568 µM; in experiment [2], 2.85 µM; in experiment [3], 0.101 µM.

As for `CNC(=O)Cn1cc(Nc2cc(-c3cccc(NC(=O)CNC(=O)CC#N)c3)ncn2)cn1`, the IC50 in experiment [1] was > 3 µM; in experiment [2] it was 2.73 µM; in experiment [3], 0.127 µM.

For the molecule `N#CCC(=O)Nc1ccc(-c2cc(Nc3ccc(N4CCOCC4)cc3)ncn2)cc1`, the IC50 in experiment [1] was 0.528 µM; in experiment [3], 0.078 µM.

Consider `Cn1cc(Nc2cc(-c3cccc(NC(=O)CNC(=O)CC#N)c3)ncn2)cn1`, for which the results for the IC50 in experiment [1], in experiment [2] and in experiment [3] were 0.089 µM, 0.069 µM and 0.095 µM, respectively.

As to `C=CC(=O)Nc1cccc(-c2cc(Nc3cnn(CCO)c3)ncn2)c1`, the figures for the IC50 in experiment [2] and in experiment [3] were 2.59 µM and 0.599 µM, respectively.

As to `C=CC(=O)NCC(=O)Nc1cccc(-c2cc(Nc3cnn(CCOC)c3)ncn2)c1`, the IC50 was 0.056 µM in experiment [1], 1.54 µM in experiment [2] and 0.066 µM in experiment [3].

In the case of `N#CCC(=O)NCC(=O)Nc1cccc(-c2cc(Nc3ccc(N4CCOCC4)cc3)ncn2)c1`, the IC50 in experiment [1] was 1.43 µM; in experiment [2] it was 0.309 µM; in experiment [3], 0.253 µM.

With `C=CC(=O)NCC(=O)Nc1cccc(-c2cc(Nc3ccc(N4CCOCC4)cc3)ncn2)c1`, the 50% inhibitory concentration (IC50) in experiment [1] is 0.354 µM; in experiment [2], > 3 µM; in experiment [3] it was 0.103 µM.

As for `C=CC(=O)Nc1cccc(-c2cc(Nc3cnn(CCN(C)C)c3)ncn2)c1`, the IC50 in experiment [1] is 0.731 µM; in experiment [2] it was > 3 µM; in experiment [3], 0.309 µM.

On to `C/C=C/C(=O)NCC(=O)Nc1cccc(-c2cc(Nc3cnn(CCOC)c3)ncn2)c1`, for which the IC50 is 0.045 µM in experiment [1], 0.886 µM in experiment [2] and 0.108 µM in experiment [3].

On to `C/C=C/C(=O)Nc1cccc(-c2cc(Nc3cnn(CC(=O)NC)c3)ncn2)c1`, for which the results for the concentration for half-maximal inhibition (IC50) in experiment [2] and in experiment [3] were 1.11 µM and 0.092 µM, respectively.

In the case of `C/C=C/C(=O)Nc1ccc(-c2cc(Nc3cnn(CCOC)c3)ncn2)cc1`, the IC50 in experiment [1] came to 2.76 µM; in experiment [3] it was 0.076 µM.

Regarding `N#CCC(=O)Nc1cccc(-c2cc(Nc3cnn(CCO)c3)ncn2)c1`, the concentration for half-maximal inhibition (IC50) in experiment [1] was found to be 1.54 µM; in experiment [2] it was 1.14 µM; in experiment [3], 0.243 µM.

As for `C/C=C/C(=O)Nc1cccc(-c2cc(Nc3cnn(CCO)c3)ncn2)c1`, the 50% inhibitory concentration (IC50) in experiment [1] is 2.44 µM; in experiment [2], 2.81 µM; in experiment [3] it was 0.221 µM.

Turning to `Cn1cc(Nc2cc(-c3cccc(NC(=O)CC#N)c3)ncn2)cn1`, the IC50 in experiment [1] came to 0.854 µM; in experiment [3], 0.145 µM.

For the molecule `C/C=C/C(=O)Nc1cccc(-c2cc(Nc3cnn(C)c3)ncn2)c1`, the figures for the 50% inhibitory concentration (IC50) in experiment [1], in experiment [2] and in experiment [3] were 1.52 µM, 2.76 µM and 0.567 µM, respectively.

Turning to `C=CC(=O)Nc1cccc(-c2cc(Nc3cnn(CC(=O)NC)c3)ncn2)c1`, the IC50 in experiment [1] worked out at 0.84 µM; in experiment [3], 0.138 µM.

`C=CC(=O)Nc1cccc(-c2cc(Nc3cnn(C)c3)ncn2)c1`: the 50% inhibitory concentration (IC50) in experiment [1] was found to be 0.657 µM; in experiment [2] it was 2.24 µM; in experiment [3], 0.303 µM.

`C=CC(=O)Nc1ccc(-c2cc(Nc3ccc(N4CCOCC4)cc3)ncn2)cc1`: the 50% inhibitory concentration (IC50) in experiment [1] is 0.961 µM; in experiment [2], 1.57 µM; in experiment [3], 0.112 µM.

In the case of `N#CCC(=O)Nc1cccc(-c2cc(Nc3ccc(N4CCOCC4)cc3)ncn2)c1`, the concentration for half-maximal inhibition (IC50) in experiment [1] was determined as 1.86 µM; in experiment [2], 0.734 µM; in experiment [3], 0.17 µM.

For the molecule `C/C=C/C(=O)Nc1cccc(-c2cc(Nc3cnn(CCN(C)C)c3)ncn2)c1`, the values for the 50% inhibitory concentration (IC50) in experiment [1], in experiment [2] and in experiment [3] were 0.899 µM, 1.89 µM and 0.067 µM, respectively.

`C/C=C/C(=O)NCC(=O)Nc1cccc(-c2cc(Nc3ccc(N4CCOCC4)cc3)ncn2)c1`: the half-inhibitory concentration (IC50) in experiment [1] was 0.586 µM; in experiment [3] it was 0.375 µM.
